Assay results taken from patent publication US20230285490A1, “ADDITIVE TO FISH FOOD COMPRISING TWO PLANT EXTRACTS AND A SEAWEED (PALMARIA PALMATA) EXTRACT AS TASTE MASKING AGENT; AND A METHOD TO COMBAT/ELIMINATE INFESTATIONS OF CALIGUS BY STERILIZATION OF FEMALE INDIVIDUALS IN FISH FARMING CENTERS AND MARINE CONCESSIONS” (priority 2020, published 2023).

Tested on: ovigerous Caligus females
Assay: In vitro plate bioassay on swimming behavior and survival of ovigerous Caligus females, comparison with emamectin benzoate (Example 7)
Conditions: 2 hours, 14° C., sea water
Excerpt: However, 75% living females slowly swam, having a slow response to stimulus and adhered to experimentation vessels. • Between 87 and 100% parasites survived in control with solvents (methanol and DMSO) used to prepare each product and in sea water. Under these conditions females actively swam and readily responded to stimulus as bubbles of the aeration system or manipulation with tweezers.

## emamectin benzoate
15 ovigerous females
  Affected and dead Total (%): 27%
  Affected ovigerous females: 1
  Vivas (living ovigerous females): 11
  dead ovigerous females: 3
15 ovigerous females, listed as emamectin benzoate
  Affected and dead Total (%): 25%
  remaining living females with slow/erratic swimming: 75%
